Assay results: PubChem BioAssay AID2060498 (Molecular Pharmacology Branch, DTP, NCI, 2025)

Tested on: 171881-019-R-J1-PDC tumor spheroids, viability
Experiment: Anticancer human tumor 171881-019-R-J1-PDC patient-derived invasive breast carcinoma cell line growth inhibition [GQUAD]
Conditions: spheroids with HUVEC and MSC; for IC50: curve of first compound; for viability, T/C: stronger effect = lower value
Source text: DNA G-quadruplex Stabilizer Agents in Combinations in Complex Spheroids
A high-throughput screen of multi-cell type tumor spheroids was designed to identify active combinations of DNA G-quadruplex stabilizer agents and targeted small molecules. Complex spheroids include a stromal component modeled by human endothelial cells (HUVEC) and fibroblasts modeled by human mesenchymal stem cells (MSCs). The concentration ranges selected for each drug and investigational agent were based upon clinically achievable concentrations if the clinical Cmax of the agent was known.
Compounds. The drugs and investigational agents: pidnarulex (CX-5461; NSC782164), APTO-253 (NSC789042), BRACO-19 (NSC847499), peposertib (NSC802822), ceralasertib (NSC780249), elimusertib (NSC800525), camonsertib (NSC841442), AZD-1390 (NSC803789), olaparib (NSC753686), talazoparib (NSC767125), ART-558 (NSC835418), sotorasib (NSC818433), MRTX-1133 (NSC836407), SN-38 (NSC673596), topotecan (NSC609699), etoposide (NSC141540), doxorubicin (NSC123127), gemcitabine (NSC613327), 5-fluorouracil (NSC19893), paclitaxel (NSC125973), vemurafenib (NSC761431), panobinostat (NSC761190), R-306465 (JNJ-16241199; NSC773264), adavosertib (NSC754352), TP-3654 (NSC805149), carboplatin (NSC241240), KSQ-4279 (NSC840948), and staurosporine (NSC755774) were obtained from the National Cancer Institute (NCI) Developmental Therapeutics Program Chemical Repository (34). The FDA-approved anticancer drug set is available from the NCI Developmental Therapeutics Program. […] The stock solutions were prepared in dimethyl sulfoxide (DMSO, Sigma-Aldrich, St. Louis, MO, cat. D2650) at 800-fold the tested concentration and stored at -70 degrees C prior to their use. All drugs and investigational agents were tested over a range starting from a high concentration at or near the clinical Cmax and decreasing in half-log increments. If the clinical Cmax for an agent had not been determined, the highest concentration tested was 10 microM.
2.3 Cell Culture. All cells were maintained in an incubator at 37 degrees C and 5% CO2 with 95% humidity. The PDC lines were cultured according to standard operating procedures established by the NCI PDMR. All PDCs were thawed and cultured in Matrigel-coated flasks prepared with a working solution of 1X Ham's F-12 nutrient mix, without supplementation (Invitrogen, cat. 11765054), 100 U/mL penicillin-streptomycin (Invitrogen, cat. 15140122), and 2.5% Matrigel (Corning Inc., cat. 354248) for the first three passages. The 857933-349-R-J2-PDC line was cultured in 6C/Colon 1B media, which includes advanced DMEM/F-12 (Thermo Fisher Scientific, cat. 12634028), 10 mM HEPES (Thermo Fisher Scientific, cat. 15630080), 1X GlutaMAX supplement (Thermo Fisher Scientific, cat. 35050061), 0.1 mg/mL primocin (InvivoGen, cat. ant-pm-2), 10% defined fetal bovine serum, heat inactivated (HyClone Laboratories Inc., cat. SH30070.03HI), 50% L-WRN conditioned media (ATCC, cat. CRL-3276), 1.25 mM N-Acetyl-L-cysteine (Sigma-Aldrich, cat. A9165), 10 mM nicotinamide (Sigma-Aldrich, cat. N0636), 1X B-27 supplement (Thermo Fisher Scientific, cat. 17504044), 1X N-2 supplement (Thermo Fisher Scientific, cat. 17502048), 10 microM Y-27632 dihydrochloride (Tocris Bioscience, cat. 1254), and 50 ng/mL human EGF recombinant protein (Thermo Fisher Scientific, cat. PHG0311). The 485176-168-R4-J1-PDC line was cultured in Panc media, which includes all 6C/Colon 1B media components plus 100 ng/mL human FGF-10 (Thermo Fisher Scientific, cat. 100-26), 500 nM SB-431542 (Selleckchem, cat. S1067), and gastrin (Tocris, cat. 3006).
[…]

[1] = second compound 0.0316 µM, first compound 0.0316 µM
[2] = second compound 0.0316 µM, first compound 0.316 µM
[3] = second compound 0.1 µM, first compound 0.0316 µM
[4] = second compound 0.1 µM, first compound 0.316 µM
[5] = second compound 0.316 µM, first compound 0.0316 µM
[6] = second compound 0.316 µM, first compound 0.316 µM
[7] = second compound 1 µM, first compound 0.0316 µM
[8] = second compound 1 µM, first compound 0.316 µM
[9] = second compound 3.16 µM, first compound 0.0316 µM
[10] = second compound 3.16 µM, first compound 0.316 µM
[11] = second compound 10 µM, first compound 0.0316 µM
[12] = second compound 10 µM, first compound 0.316 µM
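Further: spheroids exposed to compounds for 7 days.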
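Wherever viability, T/C is given: 100% = DMSO vehicle control viability.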

CCc1c2c(nc3ccc(O)cc13)-c1cc3c(c(=O)n1C2)COC(=O)[C@]3(O)CC + Cc1[nH]c2ccc(F)cc2c1-c1nc2c3cccnc3c3ncccc3c2[nH]1
IC50 (second compound 0.0316 µM): 0.00272 µM | IC50 (second compound 0.1 µM): 0.00274 µM | IC50 (second compound 0.316 µM): 0.00261 µM | IC50 (second compound 1 µM): 0.00224 µM | IC50 (second compound 3.16 µM): < 0.000999 µM | IC50 (second compound 10 µM): < 0.000999 µM | viability, T/C (second compound 0.0316 µM, first compound 0.000999 µM): 80.3% | viability, T/C (second compound 0.0316 µM, first compound 0.00316 µM): 42.4% | viability, T/C (second compound 0.0316 µM, first compound 0.00999 µM): 35.7% | viability, T/C [1]: 33.1% | viability, T/C (second compound 0.0316 µM, first compound 0.0999 µM): 25.8% | viability, T/C [2]: 23.3% | viability, T/C (second compound 0.1 µM, first compound 0.000999 µM): 78.6% | viability, T/C (second compound 0.1 µM, first compound 0.00316 µM): 43.2% | viability, T/C (second compound 0.1 µM, first compound 0.00999 µM): 35.6% | viability, T/C [3]: 33.8% | viability, T/C (second compound 0.1 µM, first compound 0.0999 µM): 28.5% | viability, T/C [4]: 22.6% | viability, T/C (second compound 0.316 µM, first compound 0.000999 µM): 74.4% | viability, T/C (second compound 0.316 µM, first compound 0.00316 µM): 42.9% | viability, T/C (second compound 0.316 µM, first compound 0.00999 µM): 34.8% | viability, T/C [5]: 33.4% | viability, T/C (second compound 0.316 µM, first compound 0.0999 µM): 27% | viability, T/C [6]: 23.4% | viability, T/C (second compound 1 µM, first compound 0.000999 µM): 66.6% | viability, T/C (second compound 1 µM, first compound 0.00316 µM): 39.5% | viability, T/C (second compound 1 µM, first compound 0.00999 µM): 34.4% | viability, T/C [7]: 27.8% | viability, T/C (second compound 1 µM, first compound 0.0999 µM): 23.6% | viability, T/C [8]: 18.7% | viability, T/C (second compound 3.16 µM, first compound 0.000999 µM): 19.9% | viability, T/C (second compound 3.16 µM, first compound 0.00316 µM): 14.7% | viability, T/C (second compound 3.16 µM, first compound 0.00999 µM): 14.6% | viability, T/C [9]: 11% | viability, T/C (second compound 3.16 µM, first compound 0.0999 µM): 10.2% | viability, T/C [10]: 7.94% | viability, T/C (second compound 10 µM, first compound 0.000999 µM): 32% | viability, T/C (second compound 10 µM, first compound 0.00316 µM): 33.6% | viability, T/C (second compound 10 µM, first compound 0.00999 µM): 25.1% | viability, T/C [11]: 19.4% | viability, T/C (second compound 10 µM, first compound 0.0999 µM): 17% | viability, T/C [12]: 12.5%

COc1cc(C2c3cc4c(cc3C(OC3OC5COC(C)OC5C(O)C3O)C3COC(=O)C23)OCO4)cc(OC)c1O (centres undefined) + Cc1[nH]c2ccc(F)cc2c1-c1nc2c3cccnc3c3ncccc3c2[nH]1
IC50 (second compound 0.0316 µM): 0.946 µM | IC50 (second compound 0.1 µM): 0.765 µM | IC50 (second compound 0.316 µM): 0.826 µM | IC50 (second compound 1 µM): 0.862 µM | IC50 (second compound 3.16 µM): < 0.0316 µM | IC50 (second compound 10 µM): < 0.0316 µM | viability, T/C [1]: 93.2% | viability, T/C (second compound 0.0316 µM, first compound 0.1 µM): 88.2% | viability, T/C [2]: 74.5% | viability, T/C (second compound 0.0316 µM, first compound 1 µM): 46.9% | viability, T/C (second compound 0.0316 µM, first compound 3.16 µM): 33.3% | viability, T/C (second compound 0.0316 µM, first compound 10 µM): 22.6% | viability, T/C [3]: 97.9% | viability, T/C (second compound 0.1 µM, first compound 0.1 µM): 98.4% | viability, T/C [4]: 77.7% | viability, T/C (second compound 0.1 µM, first compound 1 µM): 40.8% | viability, T/C (second compound 0.1 µM, first compound 3.16 µM): 33.3% | viability, T/C (second compound 0.1 µM, first compound 10 µM): 24.2% | viability, T/C [5]: 98.7% | viability, T/C (second compound 0.316 µM, first compound 0.1 µM): 92.2% | viability, T/C [6]: 72.8% | viability, T/C (second compound 0.316 µM, first compound 1 µM): 43.8% | viability, T/C (second compound 0.316 µM, first compound 3.16 µM): 33.3% | viability, T/C (second compound 0.316 µM, first compound 10 µM): 23.1% | viability, T/C [7]: 80.1% | viability, T/C (second compound 1 µM, first compound 0.1 µM): 87.6% | viability, T/C [8]: 66.3% | viability, T/C (second compound 1 µM, first compound 1 µM): 45.2% | viability, T/C (second compound 1 µM, first compound 3.16 µM): 37.7% | viability, T/C (second compound 1 µM, first compound 10 µM): 23.4% | viability, T/C [9]: 28.9% | viability, T/C (second compound 3.16 µM, first compound 0.1 µM): 18.7% | viability, T/C [10]: 22.6% | viability, T/C (second compound 3.16 µM, first compound 1 µM): 18.7% | viability, T/C (second compound 3.16 µM, first compound 3.16 µM): 17.7% | viability, T/C (second compound 3.16 µM, first compound 10 µM): 11.5% | viability, T/C [11]: 40% | viability, T/C (second compound 10 µM, first compound 0.1 µM): 50.6% | viability, T/C [12]: 35% | viability, T/C (second compound 10 µM, first compound 1 µM): 33.5% | viability, T/C (second compound 10 µM, first compound 3.16 µM): 26.5% | viability, T/C (second compound 10 µM, first compound 10 µM): 15.8%
